Values of other authors as cited in patent publication US20220387349A1, “TREATMENT OF CUTANEOUS ADVERSE EFFECTS CAUSED BY ONCOLOGICAL THERAPY WITH TOPICAL TAPINAROF COMPOSITIONS” (Sol-Gel Technologies Ltd, priority 2019, published 2022).
Like-named read-outs stand apart in the source and are kept apart here.

Legend:
[1] = psoriasis treatment, as a single drug; placebo 20.2%
[2] = system: interleukin-6 and interleukin-17A; conditions: in vitro human skin studies
[3] = system: interleukin-6 and interleukin-17A; conditions: mouse models
[4] = 1% tapinarof arm compared with the 0.5% arm or vehicle

Row | Structure (SMILES) | adverse effects [1] [%] | effect on skin barrier function [2] | effect on specific proinflammatory mediators, including interleukin-6 and interleukin-17A [2] | efficacy [4] | onset of action [4] | most frequent adverse events (topical tapinarof) | side-effects at higher concentrations (topical, higher than 1% w/w tapinarof) | effect on skin barrier function [3] | effect on specific proinflammatory mediators, including interleukin-6 and interleukin-17A [3]
1 | CC(C)c1c(O)cc(/C=C/c2ccccc2)cc1O [Tapinarof, 3,5-dihydroxy-4-isopropyl-trans-stilbene] | 44.5 | enhance skin barrier function | inhibit specific proinflammatory mediators | higher efficacy | quicker onset of action | folliculitis and contact dermatitis | undesirable side-effects | enhance skin barrier function | inhibit specific proinflammatory mediators
2 | C=C1/C(=C\C=C2/CCC[C@]3(C)[C@@H]([C@H](C)/C=C/[C@@H](O)C4CC4)CC[C@@H]23)C[C@@H](O)C[C@@H]1O [calcipotriene] | 19.5 |  |  |  |  |  |  |  | 
